Earlier results, collected in patent US10650914B2, “Fresh water acute criteria prediction method based on quantitative structure-activity relationship for metals” (Chinese Research Academy of Environmental Sciences, priority 2015, dated 2020).

Legend:
[1] = tested on: Carp; settings: training set
[2] = tested on: Daphnia magna; settings: for Endpoint Index: fatality rate, 48 hours, 13° C., pH 7.6, total hardness 240 mg/L; for Observed value (log-EC50): training set of leave-one-out internal validation

Compound | Observed value (log-LC50) [1] | Endpoint Index [2] | Observed value (log-EC50) [2]
[Cd] [Cadmium] | 0.331 | – | –
[Cr] [Chromium] | 2.439 | – | –
[Cu] [Copper] | 1.097 | 0.014 | −0.6601
[Fe] [Iron] | – | 2.92 | 1.7172
[Pb] [Lead] | – | 8.69 | 1.6231
[Ni] [Nickel] | 2.246 | 5.7 | 1.9850
[Ag] [Silver] | – | 0.014 | −0.8873
[Zn] [Zinc] | 2.079 | 0.13 | 0.3010
